Read-outs that look alike come from different tables or passages of the source.
Key:
[1] = for RAUC0–last / RCmax: ratio
[2] = tested on: advanced solid tumors; test: Objective tumor response; format: in vivo, human
[3] = Week 3 (day 21), QD 20 mg, n = 2, mean
[4] = Week 3, TIW 36 mg, n = 3, mean (standard deviation)
[5] = Week 3, TIW 56 mg, n = 6, mean (standard deviation)
[6] = Week 3, TIW 80 mg, n = 5, mean (standard deviation)
[7] = Week 3, TIW 120 mg, n = 3, mean (standard deviation)
[8] = Week 3, TIW 160 mg, n = 4, mean (standard deviation)
[9] = FGFR‐abnormal patients with GC, All patients (n = 21)
[10] = FGFR‐abnormal patients with GC, FGRF2 CN <10 (n = 10)
[11] = FGFR‐abnormal patients with GC, FGRF2 CN ≥10 (n = 11)
[12] = Futibatinib regimen QD (n = 43)
[13] = Futibatinib regimen TIW (n = 39)

## C=CC(=O)N1CC[C@H](n2nc(C#Cc3cc(OC)cc(OC)c3)c3c(N)ncnc32)C1 [futibatinib]
[1]; Day 1, TIW 80 mg, n = 6, mean (standard deviation)
  Cmax: 866 (366) [42.3] ng/ml
[1]; Day 1, TIW 120 mg, n = 3, mean (standard deviation)
  t1/2: 6.64 (1.08) [16.3] ^b h
[1]; TIW regimens, single and multiple administrations
  Dose proportionality of Cmax and AUC: dose‐proportional changes in Cmax and AUC0–last
[1]; [3]
  Cmax: 173 (NC) [NC] ng/ml
  RAUC0–last: 1.29 (NC) [NC]
  RCmax: 0.91 (NC) [NC]
[1]; Week 3, TIW 8 mg, n = 1
  Cmax: 167 (NC) [NC] ng/ml
  t1/2: 1.74 (NC) [NC] h
  RAUC0–last: 1.69 (NC) [NC]
  RCmax: 1.24 (NC) [NC]
[1]; Week 3, TIW 16 mg, n = 1
  t1/2: 5.27 (NC) [NC] h
  RAUC0–last: 1.39 (NC) [NC]
  RCmax: 0.96 (NC) [NC]
[1]; Week 3, TIW 24 mg, n = 1
  RAUC0–last: 0.80 (NC) [NC]
  RCmax: 0.72 (NC) [NC]
[1]; [4]
  RAUC0–last: 1.51 (0.47) [30.9]
  RCmax: 0.88 (0.44) [49.7]
[1]; [5]
  RAUC0–last: 1.36 (0.44) [32.5]
  RCmax: 1.25 (0.36) [28.8]
[1]; [6]
  AUC0–last: 7394 (3731) [50.5] ng·h/ml
  RAUC0–last: 1.25 (0.25) [20.0]
  RCmax: 0.96 (0.09) [9.1]
[1]; [7]
  RAUC0–last: 1.27 (0.29) [23.1]
  RCmax: 1.02 (0.34) [33.2]
[1]; [8]
  RAUC0–last: 1.54 (0.64) [41.6]
  RCmax: 1.05 (0.82) [78.2]
[1]; in vivo
  Renal excretion of unchanged futibatinib: negligible
[2]; [9]
  Best response CR: 0 (0.0) n (%)
  Best response NE: 2 (9.5) n (%)
  Best response PD: 12 (57.1) n (%)
  Best response PR: 4 (19.0) n (%)
  Best response SD: 3 (14.3) n (%)
  DCR (95% CI): 33.3 (14.6–57.0) %
  ORR (95% CI): 19.0 (5.4–41.9) %
[2]; [10]
  Best response CR: 0 (0.0) n (%)
  Best response NE: 2 (20.0) n (%)
  Best response PD: 7 (70.0) n (%)
  Best response PR: 0 (0.0) n (%)
  Best response SD: 1 (10.0) n (%)
  DCR (95% CI): 10.0 (0.3–44.5) %
  ORR (95% CI): 0 (0–30.8) %
[2]; [11]
  Best response CR: 0 (0.0) n (%)
  Best response NE: 0 (0.0) n (%)
  Best response PD: 5 (45.5) n (%)
  Best response PR: 4 (36.4) n (%)
  Best response SD: 2 (18.2) n (%)
  DCR (95% CI): 54.5 (23.4–83.3) %
  ORR (95% CI): 36.4 (10.9–69.2) %
[2]; [12]
  Best response CR: 0 (0.0) n (%)
  Best response NE: 4 (9.3) n (%)
  Best response PD: 23 (53.5) n (%)
  Best response PR: 5 (11.6) n (%)
  Best response SD: 11 (25.6) n (%)
  DCR (95% CI): 37.2 (23.0–53.3) %
  ORR (95% CI): 11.6 (3.9–25.1) %
[2]; [13]
  Best response CR: 0 (0.0) n (%)
  Best response NE: 5 (12.8) n (%)
  Best response PD: 23 (59.0) n (%)
  Best response PR: 1 (2.6) n (%)
  Best response SD: 10 (25.6) n (%)
  DCR (95% CI): 28.2 (15.0–44.9) %
  ORR (95% CI): 2.6 (0.1–13.5) %
[2]; GC patients with FGFR2 CN <10
  Patients with best response of confirmed PR: 0/10
[2]; GC patients with FGFR2 CN ≥10
  Patients with best response of confirmed PR: 4/11
[2]; Total (n = 82)
  Best response CR: 0 (0.0) n (%)
  Best response NE: 9 (11.0) n (%)

From publication PMC9899610 (Cancer Science, 2022)
